“And” between values parts separate entries of the source, which are not always exact repeats. Identical values can stand only once.
Assays:
S. aureus = conditions: cited from earlier work
BpmFabI [1] = format: biochemical, Burkholderia pseudomallei
BpmFabI [2] = format: binding, Burkholderia pseudomallei
[3] = system: drug resistant staphylococci including MRSA and MRSE; conditions: cited from earlier work

AFN-1252
MIC50 (S. aureus): 2 to 120 ng/mL | Mechanism of inhibition with respect to NADH (Lineweaver-Burk) (BpmFabI [1]): mixed inhibition | Mechanism of inhibition with respect to crotonyl-CoA (Lineweaver-Burk) (BpmFabI [1]): uncompetitive | IC50 (BpmFabI [1]; read-out: IC50 for inhibition of BpmFabI): 9.6 nM | ΔTm (BpmFabI [2]): 12.76 ± 1.26 °C and 11.61 ± 0.10 °C | Activity against drug resistant staphylococci [3]: potent

Reference: US20170088822A1 (priority 2015, published 2017)
